Measurements: the supplement of paper PMC10307832

Key:
Assay in all cases: relative viability (nuclei count vs DMSO), 5 days (fraction); higher = more cells survive
[1] = compound: CC1=NC=CC(=C1)C2=CC=C(C=C2)CC(=O)NC3=CC=C(C=C3)C4=CN=CC=C4 [Wnt-C59]
Outline: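 Hoechst staining, done together with fixation and permeabilisation, marked nuclei for 4× imaging and MetaXpress counting. This followed 5 days without medium change after lung cancer cell lines, kept overnight at 37 °C in 1536-well plates, were pinned with five library-drug doses (not always all listed) spaced by √10 on vehicle-anchored plates. Viability is the ratio of treated-well to vehicle-well nuclei, expressed as a median across plates. Plates passed only at control CV below 25% with at least one doubling.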

[2] = compound: CS(=O)(=O)CCNCc1ccc(-c2ccc3ncnc(Nc4ccc(OCc5cccc(F)c5)c(Cl)c4)c3c2)o1 [Lapatinib] + COc1cccc2cc(-c3nc([C@H]4CC[C@H](C(=O)O)CC4)n4ncnc(N)c34)[nH]c12 [OSI-027] (partner 0.5 µM)
Outline: (§1)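 Relative viability equals treated-well nuclei counts divided by vehicle-well nuclei counts. Counts came from 4× images of lung cancer cell lines grown in 1536-well plates for 5 days after pin-tool dosing on the day after seeding. Dosing used one drug alone or a fixed anchor-drug dose plus five library-drug doses (not always all listed) in √10 steps, and values are medians of duplicate plates.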

[3] = compound: CC1=NC=CC(=C1)C2=CC=C(C=C2)CC(=O)NC3=CC=C(C=C3)C4=CN=CC=C4 [Wnt-C59] + CCNC(=O)c1noc(-c2cc(C(C)C)c(O)cc2O)c1-c1ccc(CN2CCOCC2)cc1 [Luminespib] (partner 0.01 µM)
Outline: as §1

[4] = compound: CC1=NC=CC(=C1)C2=CC=C(C=C2)CC(=O)NC3=CC=C(C=C3)C4=CN=CC=C4 [Wnt-C59] + Nc1nc2[nH]cc(CCc3ccc(C(=O)N[C@@H](CCC(=O)O)C(=O)O)cc3)c2c(=O)[nH]1 [Pemetrexed] (partner 0.2 µM)
Outline: as §1

Cell Line	relative viability ([1]; 0.001 µM)	relative viability ([1]; 0.01 µM)	relative viability ([1]; 0.03162 µM)	relative viability ([1]; 0.1 µM)	relative viability ([2]; first compound 0.02 µM)	relative viability ([2]; first compound 0.06325 µM)	relative viability ([2]; first compound 0.2 µM)	relative viability ([2]; first compound 0.6325 µM)	relative viability ([2]; first compound 2 µM)	relative viability ([3]; first compound 0.001 µM)	relative viability ([3]; first compound 0.01 µM)	relative viability ([3]; first compound 0.03162 µM)	relative viability ([3]; first compound 0.1 µM)	relative viability ([4]; first compound 0.001 µM)	relative viability ([4]; first compound 0.01 µM)	relative viability ([4]; first compound 0.03162 µM)	relative viability ([4]; first compound 0.1 µM)
201T	0.972	0.958	0.982	0.976	0.794	0.598	0.597	0.807	0.703	1.03	1.07	0.996	1.02	0.357	0.326	0.311	0.36
A549	0.966	0.978	1.01	0.893													
A-427	0.965	0.817	1.05	1.04		0.359	0.516	0.541	0.417	0.886	0.943	0.715	0.933	0.936	1.04	0.994	1.1
ABC-1	0.938	1.01	1.01	0.952	0.532	0.321	0.706	0.702	0.477	1.18	0.807	0.736	0.598				
BEN	0.936	1	1.02	1.07		0.279	0.298	0.288	0.25	0.331	0.423	0.457	0.598	0.707	0.738	0.754	0.846
CAL-12T	0.975	1.04	0.965	1.04		0.32	0.497	0.319	0.313	0.397	0.307	0.592	0.571	1.33	1.18	1.29	1.09
COR-L23	0.961	1.01	1.07	0.963	0.771	0.651	0.769	0.721	0.654	0.758	0.667	0.742	0.617	0.221	0.194	0.206	0.2
COR-L 105	0.992	0.948	0.94	0.921	0.638	0.362	0.449	0.413	0.269	0.913	0.609	0.823	0.645	1.13	0.887	1.14	1.15
Calu-6	1.02	1.01	1.05	0.987													
ChaGo-K-1	0.951	1.01	1.03	0.958	0.341	0.391	0.585	0.53	0.462	0.672	0.71	0.765	0.543	0.258	0.259	0.252	0.266
EBC-1	1.08	0.995	1.02	0.904													
EKVX	1.03	0.759	1.01	0.832	0.594	0.502	0.575	0.58	0.325	0.952	0.824	0.857	0.704	0.376		0.367	0.361
EMC-BAC-2	0.891	0.874	0.868	0.962	0.339	0.277	0.377	0.392	0.346	1.18	1.05	1.06	1.12	0.474	0.447	0.426	0.439
EPLC-272H	1.01	0.886	1.15	0.987			0.256	0.227	0.224	0.309	0.519	0.389	0.302	0.38	0.354	0.318	0.315
H3255	1.03	0.887	1.06	0.966	0.577	0.524	0.505	0.431	0.236	0.94	0.884	1.04	0.919	0.598	0.553	0.583	0.554
HARA	0.952	0.874	1.19	1.02		0.214	0.474	0.328	0.239	0.662	0.557	0.721	0.65	0.206	0.206	0.26	0.237
HCC-15	1.05	1.01	1.07	0.981		0.386	0.682	0.727	0.612	0.399	0.297	0.287	0.369	0.228	0.235	0.215	0.225
HCC-44	1.04	0.972	0.979	1.04		0.341	0.509	0.421	0.473	1.18	1.2	0.897	0.997	0.619	0.647	0.64	0.629
HCC-78	0.814	1.02	0.99	1.12		0.324	0.315	0.381	0.344					0.913	0.883	0.907	0.934

Cell Line	relative viability ([1]; 0.001 µM)	relative viability ([1]; 0.01 µM)	relative viability ([1]; 0.03162 µM)	relative viability ([1]; 0.1 µM)	relative viability ([2]; first compound 0.02 µM)	relative viability ([2]; first compound 0.06325 µM)	relative viability ([2]; first compound 0.2 µM)	relative viability ([2]; first compound 0.6325 µM)	relative viability ([2]; first compound 2 µM)	relative viability ([3]; first compound 0.001 µM)	relative viability ([3]; first compound 0.01 µM)	relative viability ([3]; first compound 0.03162 µM)	relative viability ([3]; first compound 0.1 µM)	relative viability ([4]; first compound 0.001 µM)	relative viability ([4]; first compound 0.01 µM)	relative viability ([4]; first compound 0.03162 µM)	relative viability ([4]; first compound 0.1 µM)
HCC-366	0.993	0.997	1.06	0.976		0.58	0.838	0.859	0.373					0.164	0.16	0.163	0.155
HCC-827	1.1	1.05	1.02	1.06	0.54	0.7	0.691	0.71	0.661	0.7	0.693	0.645	0.698	0.282	0.262	0.282	0.255
HOP-62	0.998	1	1.06	0.953	0.486	0.756	0.89	0.866	0.914	0.945	0.913	0.969	0.927	0.34	0.294	0.353	0.29
IA-LM	1.05	0.909	0.94	0.884													
LC-2-ad	1.05	0.966	0.933	0.955		0.49	0.767	0.764	0.619	1.13	0.97	1.06	0.975	0.282	0.297	0.271	0.283
LCLC-97TM1	1.04	0.908	1.07	1.06			0.564	0.497	0.503	0.756	0.763	0.616	0.742	0.169	0.181	0.18	0.183
LCLC-103H	0.959	0.986	0.987	1.03	0.409	0.372	0.429	0.417	0.436	0.845	0.919	0.977	0.973	0.452	0.467	0.482	0.505
LK-2	0.958	0.982	0.993	1.12	0.217		0.228	0.238	0.228	0.199	0.159	0.174	0.213	0.332	0.295	0.323	0.331
LOU-NH91	0.978	0.892	0.955	1.04	0.608	0.577	0.51	0.589	0.453	0.375	0.284	0.298	0.348	0.386	0.384	0.345	0.38
LU99A	0.946	0.923	1.09	0.936	0.283	0.244	0.297	0.293	0.284	0.249	0.269	0.249	0.263	0.205	0.195	0.178	0.195
LXF-289	0.983	0.993	0.999	0.976	0.16	0.477	0.796	0.714	0.723	0.607	0.666	0.618	0.712	0.897	0.827	0.916	0.91
NCI-H23	0.827	0.972	1.01	1			0.51	0.639	0.504	0.206	0.217	0.227	0.217	0.589	0.595	0.59	0.703
NCI-H322M	0.999	0.859	0.84	0.867	0.591	0.374	0.571	0.46	0.431	0.978	0.737	0.737	0.809	0.649	0.589	0.579	0.569
NCI-H358	1.01	0.785	0.957	0.975	0.567	0.285	0.439	0.285	0.215	0.315	0.341	0.291	0.475	0.167	0.176	0.207	0.172
NCI-H727	1.01	0.854	0.867	0.931	0.529		0.557	0.467	0.499	0.332		0.857	0.526				
NCI-H1299	1.03	1.03	1.03	1.01													
NCI-H1623	0.948	0.812	1.02	0.994	0.377	0.367	0.407	0.387	0.246	0.594	0.413	0.544	0.481				
NCI-H1648	0.881	1.06	1.05	0.9	0.266	0.306	0.289	0.288	0.268					0.615	0.922	0.81	0.66
NCI-H1703	1.02	0.967	1.05	0.97													
